# How the values were obtained:
# [1] = Solubility observed during in vitro testing; type: physicochemical; conditions: in vitro cytotoxicity testing
# [2] = system: HCT-116 (colon cancer); assay: MTT cell viability assay, HCT-116; type: cell-based
# Method: (§1) The viability of SCC cell lines, HT-29, HCT-116, HEP2G and primary human fibroblast cells was evaluated using the MTT assay as in [26]. Briefly, the cells were grown in duplicates in 96-well plates (5 × 10^3 cells/well) until confluence. Then, the medium was removed, fresh medium was added, and the cells were returned to the incubator in the presence of different compounds. DMSO at the same concentrations was used as a 100% cell viability control. After 48 h, the cells were incubated with 5 mg/mL MTT reagent (3-(4,5-dimethyl-2-thiazolyl)-2,5-diphenyl-2-H-tetrazolium bromide) (Sigma-Aldrich Co., St. Louis, MO, USA) for 3.5 h. After that, formazan crystals were dissolved in MTT solvent solution (DMSO/methanol 1:1 v/v), and the absorbance at 560 nm was evaluated using an EPOCH microplate spectrophotometer (BioTek Instruments, Winooski, VT, USA) with the background absorbance at 670 nm subtracted. […]
# (§2) The data are presented as means ± SD. […] The selectivity index was calculated as SI = IC50 of the compound in normal oral fibroblast cells/IC50 of the same compound for each cancer cell line (SCC-4, SCC-9, SCC-25, HCT-116, HT29 and HEP2G), and the mean was calculated when indicated.
# [3] = system: Primary Gingival Fibroblast (HGF); assay: MTT cell viability assay, primary normal gingival fibroblasts; type: cell-based, human; conditions: Homo sapiens, Fibroblast, 48 h
# Method: Human SCC-4, SCC-9, and SCC-25 cells derived from a human oral tongue SCC (squamous cell carcinoma) were obtained from the ATCC (CRL-1624, CRL-1629, and CRL-1628, respectively) and maintained in 1:1 DMEM/F12 (Dulbecco’s modified Eagle medium and Ham’s F12 medium; Gibco (Thermo Fisher, Waltham, MA, USA)) supplemented with 10% (v/v) FBS (fetal bovine serum; Invitrogen, Thermo Fisher, Waltham, MA, USA) and 400 ng/mL hydrocortisone (Sigma-Aldrich Co., St. Louis, MO, USA). Primary normal human gingival fibroblasts were obtained from the ATCC (PCS-201-018; HGF) and maintained in DMEM supplemented with 10% (v/v) FBS and were used in a maximum of six passages. The cells were grown in a humidified environment containing 5% CO2 at 37 °C. For all biological experiments, the compounds and control nutlin 3a were solubilized in 100% DMSO (all Sigma-Aldrich) to a final concentration of 10 mM. Carboplatin stock was prepared in water (Fauldcarbo®; LibbsFarmacêutica, São Paulo, SP, Brazil) and was used as a standard anticancer compound.
# (§3) The viability of SCC cell lines, HT-29, HCT-116, HEP2G and primary human fibroblast cells was evaluated using the MTT assay as in [26]. Briefly, the cells were grown in duplicates in 96-well plates (5 × 10^3 cells/well) until confluence. Then, the medium was removed, fresh medium was added, and the cells were returned to the incubator in the presence of different compounds. DMSO at the same concentrations was used as a 100% cell viability control. After 48 h, the cells were incubated with 5 mg/mL MTT reagent (3-(4,5-dimethyl-2-thiazolyl)-2,5-diphenyl-2-H-tetrazolium bromide) (Sigma-Aldrich Co., St. Louis, MO, USA) for 3.5 h. After that, formazan crystals were dissolved in MTT solvent solution (DMSO/methanol 1:1 v/v), and the absorbance at 560 nm was evaluated using an EPOCH microplate spectrophotometer (BioTek Instruments, Winooski, VT, USA) with the background absorbance at 670 nm subtracted. Each of the six compounds was tested at six or seven different concentrations, ranging from 0.3 µM to 200 µM in cancer cell lines (SCC-4, SCC-9 and SCC-25) and 0.3 µM to 200 µM in primary normal human gingival fibroblasts. Controls (carboplatin, nutlin 3a) were tested at six or seven different concentrations ranging from 0.05 µM to 1000 µM in cancer cells and normal cells, depending on the compound.
# (§4) The data are presented as means ± SD. IC values for the MTT assays were obtained by nonlinear regression using the […] 5.0 program (Intuitive Software for Science, San Diego, CA, USA) from at least three independent experiments. A dose–response (inhibitor) vs. response curve using the least squares method was used to determine the IC50, SD, and R^2 of the data. The selectivity index was calculated as SI = IC50 of the compound in normal oral fibroblast cells/IC50 of the same compound for each cancer cell line (SCC-4, SCC-9, SCC-25, HCT-116, HT29 and HEP2G), and the mean was calculated when indicated.
# [4] = system: SCC9 cells; assay: Cell cycle and SubG1 analysis (PI flow cytometry); type: cell-based, human; conditions: SCC9, 2 × IC50, 48 h, PI staining
# Method: To evaluate the action of compound 1f on the cell cycle and DNA fragmentation, SCC9 cell line cells were plated in a 6-well plate (5 × 10^5 cells/well). After 48 h of treatment, the cells were trypsinized and stained with propidium iodide (75 µM) in the presence of NP-40. The DNA content was analyzed by collecting 10,000 events using a FACScalibur flow cytometer. The data were analyzed using CellQuest (BD Biosciences, Franklin Lakes, NJ, USA) and FlowJo (Tree Star Inc., Ashland, OR, USA) software as in [34].
# [5] = system: HEP2G (hepatocarcinoma); assay: MTT cell viability assay, HEP2G; type: cell-based; conditions: 48 h
# Method: as §1, §2
# [6] = system: C57BL/6 female mice; assay: In vivo acute toxicity study; conditions: for Gross Necropsy: day 14
# Method: The acute toxicity study for compound 1f was performed as in the work of Macedo et al., 2019 [24]. The assay was approved by the University Animal Ethics Board under registration number 2699110419, in accordance with Brazilian guidelines and regulations. Dosing and analysis were performed according to OECD guidelines 423 and revised by Parasuraman. The test was performed in 12-week-old C57BL/6 female mice via intraperitoneal injection. Each animal group had n = 3 and received only one intraperitoneal injection (Day 0) of compound 1f dissolved in […] PBS and 3% DMSO. The control group animals received only 3% DMSO in PBS. The first dose of the compound was 25 mg/kg; subsequent dose levels (50 mg/kg and 100 mg/kg) were determined based on the result obtained from the previous dosing. The animals were examined every day, twice a day, for mortality and morbidity for 14 days. At day 14, all animals were anesthetized (ketamine 100 mg/kg and xylazine 10 mg/kg) followed by cervical dislocation. The gross necropsy and histology of the main organs were performed. Body weight and average food consumption were measured every 7 days as an indication of morbidity, and the following signs were assessed: tremors; convulsion; salivation; diarrhea; lethargy; pain signs; increased rear arching; and defect in mobility. The necropsy included an examination of the external characteristics of the carcass; external body orifices; the abdominal, thoracic, and cranial cavities; and organs/tissues—liver, thymus, right kidney, right testicle, heart, and lung.
# [7] = system: Oral Tumor Cells (SCC9, SCC25, SCC4); assay: MTT assay, average over oral tumor cells; type: cell-based, human
# Method: as §3, §4
smiles,measurement,setting,value
"Cc1cccc(C)c1-n1cc(/C=C/C(=O)c2ccccc2N)nn1 [1f, (E)-1-(2-Aminophenyl)-3-(1-(2,6-dimethylphenyl)-1H-1,2,3-triazol-4-yl)prop-2-en-1-one]",solubility (in words),[1],highly soluble
same,IC50,"[2]; Homo sapiens, HCT-116, 48 h, MTT",3.99 µM
same,HCT-116 S.I.,[2]; IC50 HGF / IC50 HCT-116,7.41
same,IC50,[3],29.6 µM
same,cells in G2/M phase,[4],44.0%
same,fragmentation of DNA (Sub-G1 DNA-content),[4],23.3%
same,IC50,[5],39.4 µM
same,Change in body weight,"[6]; 25 mg/kg single i.p., 14 days",Absent
same,Morbidity,"[6]; 25 mg/kg single i.p., 14 days",Absent
same,Gross Necropsy,[6]; 25 mg/kg single i.p.,No alteration
same,Change in body weight,"[6]; 50 mg/kg single i.p., 14 days",Absent
same,Morbidity,"[6]; 50 mg/kg single i.p., 14 days",Absent
same,Gross Necropsy,[6]; 50 mg/kg single i.p.,No alteration
same,Change in body weight,"[6]; 100 mg/kg single i.p., 14 days",Absent
same,Morbidity,"[6]; 100 mg/kg single i.p., 14 days",Absent
same,Gross Necropsy,[6]; 100 mg/kg single i.p.,No alteration
same,animal weight compared to control group,"[6]; 25, 50, 100 mg/kg i.p., 14 days",no significant change in animal weight
same,"food consumption, second week","[6]; all groups (25, 50, 100 mg/kg i.p.)",no noticeable difference in food consumption
same,"food intake, first week","[6]; all treated groups (25, 50, 100 mg/kg i.p.), more significant at 100 mg/kg",reduction in food intake
same,IC50,"[7]; Homo sapiens, mean of SCC9, SCC25, SCC4",4.54 µM
same,Average S.I.,[7]; IC50 of normal primary fibroblasts / average IC50 of tumor cells,6.51

# Reference: article PMC10295897, “A Novel MDM2-Binding Chalcone Induces Apoptosis of Oral Squamous Cell Carcinoma” (Biomedicines, 2023)
